Patent US5098826A, “Detection, isolation and purification of Clostridium difficile toxin A with toxin receptors” (Virginia Tech Intellectual Properties, Inc., priority 1990, dated 1992)

Assays:
C. difficile toxin A = molecular target: T1, C. difficile toxin A (Clostridioides difficile, UniProt P16154); assay: Crossed immunoelectrophoresis (X-IEP) toxin A binding assay; parameters: species or system Clostridium difficile; settings: 100 μg toxin A mixed with 500 μg/ml conjugate, on ice 10 minutes, electrophoresis at 4° C., pH 8.6
T1 construct: The organism was cultured, and the toxin A was purified from the culture filtrate; made in house; host or cells: C. difficile VPI strain 10463 (natural producer, culture filtrate; not recombinant)
Protocol: 100 μg toxin A and 500 μg/ml of each of the oligosaccharide-HSA conjugates of Table 1 in PBS were mixed and incubated on ice for 10 minutes, then 5 μl of this mixture was assayed by X-IEP for toxin A binding on a 5×5 cm glass slide substantially as described by Lyerly et al., J. Clin. Microbiol. 17, 72-78 (1983). Briefly, wells (1 mm in diameter) were cut in gels composed of 1.2% (wt/vol) low electroendosmotic agarose (Sigma Chemical Co.) in 0.025M Tris-Tricine buffer (0.6 g agarose in 50 ml buffer) (pH 8.6). The Tris-Tricine buffer is prepared by combining the following and adding deionized water up to a volume of 1 L: Tris, 9.8 g; Ca-lactate, 0.106 g; Tricine, 4.3 g; NaN3, 0.2 g. For the first dimension, oligosaccharide-HSA sample (5 μl) was placed in a sample well in the lower corner of the plate. 0.1% bromphenol blue was placed in an upper corner well as a tracing dye, and the plate was subjected to electrophoresis at 10 V/cm at constant current and 4° C. The second dimension of the plate consisted of a 1.2% (wt/vol) agarose gel containing 0.1 ml of goat antiserum to C. difficile culture filtrate. Electrophoresis was performed at 10 V/cm for about 3 hours at 4° C. Gels were washed in 20 mM sodium phosphate with 130 mM NaCl, pH 7.4, stained with a staining solution (5 g Coomassie Blue R-250, 450 ml EtOH, […], and 450 ml deionized H2 O), and de-stained in the staining solution minus Coomassie Blue.
The principle behind the X-IEP assay is that the rate of migration of toxin A in an electric field is dependent on the net charge of the molecule, which is dependant on its isoelectric point and the pH of the electrophoresis medium. Toxin A has a slight negative charge at pH 8.6, which is the pH at which the X-IEP was carried out. The toxin migrates slowly in the applied electric field. HSA, on the other hand, has a relatively high net negative charge at pH 8.6. […]

toxin A = toxin A (Clostridioides difficile, UniProt P16154); settings: cited from earlier work; for toxin A binding: Krivan et al., U.S. Pat. No. 4,863,852, Clark et al.
Chain of toxin A (P16154 whole entry, looked up): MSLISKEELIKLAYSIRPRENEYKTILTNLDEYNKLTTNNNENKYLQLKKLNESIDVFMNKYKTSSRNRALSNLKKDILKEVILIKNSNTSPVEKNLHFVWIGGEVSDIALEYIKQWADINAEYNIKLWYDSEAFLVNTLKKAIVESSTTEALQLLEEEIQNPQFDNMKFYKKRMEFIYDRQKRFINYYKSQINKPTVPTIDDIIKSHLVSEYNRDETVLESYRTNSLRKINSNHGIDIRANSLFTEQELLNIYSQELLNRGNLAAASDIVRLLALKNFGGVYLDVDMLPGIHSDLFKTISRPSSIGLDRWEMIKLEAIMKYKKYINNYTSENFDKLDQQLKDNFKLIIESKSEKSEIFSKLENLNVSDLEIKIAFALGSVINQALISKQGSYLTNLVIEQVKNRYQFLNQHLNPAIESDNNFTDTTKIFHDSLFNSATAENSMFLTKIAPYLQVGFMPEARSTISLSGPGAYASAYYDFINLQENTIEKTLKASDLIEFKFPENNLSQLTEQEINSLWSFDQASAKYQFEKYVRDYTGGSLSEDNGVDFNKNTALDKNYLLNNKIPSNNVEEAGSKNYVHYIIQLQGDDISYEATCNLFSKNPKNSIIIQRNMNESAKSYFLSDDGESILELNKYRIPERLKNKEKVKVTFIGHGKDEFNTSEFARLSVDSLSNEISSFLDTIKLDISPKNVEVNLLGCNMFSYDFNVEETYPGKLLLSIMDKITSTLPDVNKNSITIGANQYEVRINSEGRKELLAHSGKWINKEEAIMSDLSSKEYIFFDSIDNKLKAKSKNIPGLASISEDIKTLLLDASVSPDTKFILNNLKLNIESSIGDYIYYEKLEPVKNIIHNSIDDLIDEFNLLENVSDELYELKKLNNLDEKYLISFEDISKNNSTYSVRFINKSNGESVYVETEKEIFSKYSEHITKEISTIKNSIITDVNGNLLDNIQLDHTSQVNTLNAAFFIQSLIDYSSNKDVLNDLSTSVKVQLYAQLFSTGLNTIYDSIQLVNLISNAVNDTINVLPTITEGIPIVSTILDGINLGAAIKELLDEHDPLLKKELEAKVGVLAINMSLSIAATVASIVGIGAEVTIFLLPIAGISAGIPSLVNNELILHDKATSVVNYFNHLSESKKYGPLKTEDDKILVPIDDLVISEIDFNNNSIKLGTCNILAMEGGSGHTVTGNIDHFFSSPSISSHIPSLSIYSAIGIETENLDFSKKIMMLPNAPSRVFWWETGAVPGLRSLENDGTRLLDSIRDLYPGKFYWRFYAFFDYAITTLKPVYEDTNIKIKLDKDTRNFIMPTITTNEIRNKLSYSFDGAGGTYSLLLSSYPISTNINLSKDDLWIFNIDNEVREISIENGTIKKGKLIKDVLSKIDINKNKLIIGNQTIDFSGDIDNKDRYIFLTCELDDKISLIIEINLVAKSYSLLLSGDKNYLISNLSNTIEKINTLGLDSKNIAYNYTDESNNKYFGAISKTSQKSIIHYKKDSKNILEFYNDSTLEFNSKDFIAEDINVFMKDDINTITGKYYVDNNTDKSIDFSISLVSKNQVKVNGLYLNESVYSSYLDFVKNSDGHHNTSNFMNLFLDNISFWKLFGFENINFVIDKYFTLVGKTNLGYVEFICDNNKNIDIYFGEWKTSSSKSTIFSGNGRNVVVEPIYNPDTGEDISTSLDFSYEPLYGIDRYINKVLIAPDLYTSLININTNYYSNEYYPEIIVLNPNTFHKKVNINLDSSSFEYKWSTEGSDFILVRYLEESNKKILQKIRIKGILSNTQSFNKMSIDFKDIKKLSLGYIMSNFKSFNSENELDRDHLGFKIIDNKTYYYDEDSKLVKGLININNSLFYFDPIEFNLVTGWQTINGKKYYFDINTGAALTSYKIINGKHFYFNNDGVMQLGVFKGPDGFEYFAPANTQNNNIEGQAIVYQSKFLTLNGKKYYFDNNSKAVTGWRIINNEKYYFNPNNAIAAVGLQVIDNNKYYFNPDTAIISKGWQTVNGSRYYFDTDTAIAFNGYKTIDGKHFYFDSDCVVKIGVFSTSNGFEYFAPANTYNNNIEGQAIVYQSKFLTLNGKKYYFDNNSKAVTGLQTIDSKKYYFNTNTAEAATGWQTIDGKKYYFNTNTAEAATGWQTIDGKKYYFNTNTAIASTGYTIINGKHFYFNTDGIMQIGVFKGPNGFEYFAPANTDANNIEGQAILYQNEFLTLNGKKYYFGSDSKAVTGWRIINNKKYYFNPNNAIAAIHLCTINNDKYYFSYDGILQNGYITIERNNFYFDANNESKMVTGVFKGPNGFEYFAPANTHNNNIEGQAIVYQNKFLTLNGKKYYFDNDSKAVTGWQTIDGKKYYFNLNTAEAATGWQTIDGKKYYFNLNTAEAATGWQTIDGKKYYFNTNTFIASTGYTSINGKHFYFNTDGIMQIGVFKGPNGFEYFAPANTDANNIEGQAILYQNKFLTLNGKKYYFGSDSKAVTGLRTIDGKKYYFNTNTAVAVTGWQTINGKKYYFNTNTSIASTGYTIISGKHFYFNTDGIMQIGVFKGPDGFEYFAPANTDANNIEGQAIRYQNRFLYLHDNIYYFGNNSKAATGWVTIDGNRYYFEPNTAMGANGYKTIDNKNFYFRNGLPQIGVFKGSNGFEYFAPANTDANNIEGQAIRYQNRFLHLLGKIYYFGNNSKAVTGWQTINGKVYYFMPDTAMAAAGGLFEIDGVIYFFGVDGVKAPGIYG

CC(=O)N[C@H]1[C@H](O[C@H]2[C@@H](O)[C@@H](CO)O[C@@H](O[C@H]3[C@H](O)[C@@H](O)C(O)O[C@@H]3CO)[C@@H]2O)O[C@H](CO)[C@@H](O[C@@H]2O[C@H](CO)[C@H](O)[C@H](O)[C@H]2O)[C@@H]1O (some centres unmarked) [LNnT, Galβ(1→4)GlcNAcβ(1→3)Galβ(1→4)Glc]
Toxin A Binding X-IEP (altered migration of toxin A) (C. difficile toxin A): did not bind the toxin
toxin A binding (toxin A): prevents toxin A from binding

Secretory Component: human protein known to contain the X antigen
Toxin A Binding X-IEP (altered migration of toxin A) (C. difficile toxin A; listed as SC): same behavior

CC(=O)N[C@H]1C(O)O[C@H](CO)[C@@H](O[C@@H]2O[C@H](CO)[C@H](O)[C@H](O[C@H]3O[C@H](CO)[C@H](O)[C@H](O)[C@H]3O)[C@H]2O[C@@H]2O[C@@H](C)[C@@H](O)[C@@H](O)[C@@H]2O)[C@@H]1O (some centres unmarked) [Galα(1→3)[Fucα-(1→2)]Galβ(1→4)GlcNAc, Galα(1→3)[Fucα(1→2)]Galβ(1→4)GlcNAc]
toxin A binding (toxin A): does not bind

CC(=O)N[C@H]1C(O)O[C@H](CO)[C@@H](O[C@@H]2O[C@H](CO)[C@H](O)[C@H](O[C@H]3O[C@H](CO)[C@H](O)[C@H](O)[C@H]3O)[C@H]2O)[C@@H]1O (some centres unmarked) [Galα(1→3)Galβ(1→4)GlcNAc]
toxin A binding at 37° C. (toxin A; 37° C., U.S. Pat. No. 4,863,852): not detected
toxin A binding (toxin A): binds
temperature of maximal binding of toxin A (toxin A; U.S. Pat. No. 4,863,852): 4 °C

B1: Carcinoembryonic Antigen: human protein known to contain the X antigen (protein, UniProt P06731 35-685, looked up)
Cell adhesion molecule CEACAM5: KLTIESTPFNVAEGKEVLLLVHNLPQHLFGYSWYKGERVDGNRQIIGYVIGTQQATPGPAYSGREIIYPNASLLIQNIIQNDTGFYTLHVIKSDLVNEEATGQFRVYPELPKPSISSNNSKPVEDKDAVAFTCEPETQDATYLWWVNNQSLPVSPRLQLSNGNRTLTLFNVTRNDTASYKCETQNPVSARRSDSVILNVLYGPDAPTISPLNTSYRSGENLNLSCHAASNPPAQYSWFVNGTFQQSTQELFIPNITVNNSGSYTCQAHNSDTGLNRTTVTTITVYAEPPKPFITSNNSNPVEDEDAVALTCEPEIQNTTYLWWVNNQSLPVSPRLQLSNDNRTLTLLSVTRNDVGPYECGIQNELSVDHSDPVILNVLYGPDDPTISPSYTYYRPGVNLSLSCHAASNPPAQYSWLIDGNIQQHTQELFISNITEKNSGLYTCQANNSASGHSRTTVKTITVSAELPKPSISSNNSKPVEDKDAVAFTCEPEAQNTTYLWWVNGQSLPVSPRLQLSNGNRTLTLFNVTRNDARAYVCGIQNSVSANRSDPVTLDVLYGPDTPIISPPDSSYLSGANLNLSCHSASNPSPQYSWRINGIPQQHTQVLFIAKITPNNNGTYACFVSNLATGRNNSIVKSITVSASGTSPGLSA
Toxin A Binding X-IEP (altered migration of toxin A) (C. difficile toxin A; listed as CEA): same behavior
